Experimental data taken from US6362369B1, “Phthalic acid diamide derivatives fluorine-containing aniline compounds as starting material, agricultural and horticultural insecticides, and a method for application of the insecticides” (Nihon Nohyaku Co., Ltd., priority 1997, dated 2002).

Tests used:
[1] = system: rice leafroller (Cnaphalocrocis medinalis); assay: Insecticidal effect on rice leafroller (Test Example 3); format: in vivo; conditions: 500 ppm, four days after inoculation, 25° C., humidity 70%; for Insecticidal effect on rice leafroller (Test Example 3), judged grade: rice lamina dip, third-instar larvae; for Insecticidal effect, Test Example 3: rice leafroller third-instar larvae, rice lamina immersed
Outline: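 Insecticidal effect is judged by a predefined criterion from dead/alive counts four days after infesting air-dried lamina with third-instar larvae, kept on moistened filter paper at 25° C, 70% humidity.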

[2] = system: diamondback moth (Plutella xylostella); assay: Insecticidal effect on diamondback moth (Test Example 1); format: in vivo; conditions: for Insecticidal effect on diamondback moth (Test Example 1), judged grade: mortality judged according to the criterion shown in Test Example 1; for Insecticidal effect, Test Example 1: diamondback moth, mortality judged by criterion of Test Example 1
Outline: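 Oviposition by adults on Chinese cabbage seedling; immersion; air-dry; 25° C room. Count of hatched larvae at day 6 post-immersion → mortality → effect graded by criterion. Triplicate, 10 insects/group.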

SMILES | Insecticidal effect on rice leafroller (Test Example 3), judged grade [1] | Insecticidal effect on diamondback moth (Test Example 1), judged grade [2] | Insecticidal effect, Test Example 3 [1] | Insecticidal effect, Test Example 1 [2]
COCCNC(=O)c1c(C(=O)Nc2ccc(OC(F)F)cc2C)cccc1[N+](=O)[O-] [compound 872] | C (89-80) | A (100) | – | –
Cc1cc(OC(F)F)ccc1NC(=O)c1cccc([N+](=O)[O-])c1C(=O)NC(C)c1ccccc1 (stereo not shown) [compound 879] | A (100) | A (100) | – | –
CC(C)NC(=O)c1ccccc1C(=O)Nc1ccc(C(F)(F)C(F)(F)F)cc1 [compound 889] | A (100) | A (100) | – | –
CC(C)NC(=O)c1cccc(F)c1C(=O)Nc1ccc(C(F)(F)C(F)(F)F)cc1 [compound 892] | A (100) | A (100) | – | –
CC(C)NC(=O)c1c(Cl)cccc1C(=O)Nc1ccc(C=C(Cl)C(F)(F)F)cc1 [compound 911] | D (79-50) | A (100) | – | –
CCc1ccc(Cl)c(CC)c1NC(=O)c1cccc(I)c1C(=O)NC(C)C [compound 925] | A (100) | A (100) | – | –
CC(C)(C)NC(=O)c1ccccc1C(=O)Nc1ccc(C(F)(F)F)cc1 [compound 928] | A (100) | A (100) | – | –
CN(C(=O)c1ccccc1C(=O)NC(C)(C)C)c1ccc(OC(F)(F)F)cc1 [compound 933] | A (100) | A (100) | – | –
CCCCNC(=O)c1cccc(I)c1C(=O)Nc1ccc(C(F)(F)C(F)(F)F)cc1C [compound 946] | – | – | A (100) | A (100)
CCCc1cc(I)ccc1NC(=O)c1cccc(I)c1C(=O)NC(C)C [compound 952] | – | – | A (100) | A (100)
Cc1cc(C(F)(F)C(F)(F)F)ccc1NC(=O)c1c(C)cccc1C(=O)NC(C)C [compound 954] | – | – | A (100) | A (100)
Cc1cc(C(F)(F)C(F)(F)F)ccc1NC(=O)c1c(C)cccc1C(=O)NC(C)(C)C [compound 956] | – | – | A (100) | A (100)
Cc1cc(OC(F)(F)F)ccc1NC(=O)c1c(I)cccc1C(=O)NC(C)(C)C [compound 958] | – | – | A (100) | A (100)
CCCNC(=O)c1c(I)cccc1C(=O)Nc1cccc(Cl)c1C [compound 959] | – | – | A (100) | A (100)
CCCCc1cc(I)ccc1NC(=O)c1cccc(I)c1C(=O)NC(C)C [compound 966] | – | – | B (99-90) | A (100)
CC(C)NC(=O)c1ccccc1C(=O)Nc1ccc2c(c1)OC(F)(F)C(F)(F)O2 [compound 975] | – | – | A (100) | A (100)
COCCNC(=O)c1cccc(I)c1C(=O)Nc1ccc(C(F)(F)C(F)(F)F)cc1C [compound 982] | – | – | C (89-80) | A (100)
COCCCNC(=O)c1cccc(I)c1C(=O)Nc1ccc(C(F)(F)C(F)(F)F)cc1C [compound 986] | – | – | A (100) | A (100)
C#CCNC(=O)c1cccc(I)c1C(=O)Nc1ccc(C(F)(F)C(F)(F)F)cc1C [compound 990] | – | – | A (100) | A (100)
Cc1cc(C(F)(F)C(F)(F)F)ccc1NC(=O)c1cccc(I)c1C(=O)NC1CCCCC1 [compound 993] | – | – | A (100) | A (100)
CC(C)NC(=O)c1ccccc1C(=O)Nc1ccc(SC(F)(F)F)cc1 [compound 995] | – | – | A (100) | A (100)
CC(C)NC(=O)c1ccccc1C(=O)Nc1ccc([S+]([O-])C(F)(F)F)cc1 (stereo not shown) [compound 999] | – | – | A (100) | A (100)

SMILES | Insecticidal effect on rice leafroller (Test Example 3), judged grade [1] | Insecticidal effect on diamondback moth (Test Example 1), judged grade [2] | Insecticidal effect, Test Example 3 [1] | Insecticidal effect, Test Example 1 [2]
CCC(C)NC(=O)c1cccc(I)c1C(=O)Nc1ccc(C(F)(F)C(F)(F)F)cc1C (stereo not shown) [compound 1008] | – | – | A (100) | A (100)
CCCC(C)NC(=O)c1cccc(I)c1C(=O)Nc1ccc(C(F)(F)C(F)(F)F)cc1C (stereo not shown) [compound 1010] | – | – | A (100) | A (100)
CCC(COC)NC(=O)c1cccc(I)c1C(=O)Nc1ccc(C(F)(F)C(F)(F)F)cc1C (stereo not shown) [compound 1014] | – | – | A (100) | A (100)
CC(C)(C)NC(=O)c1ccccc1C(=O)Nc1ccc(OC(F)(F)F)cc1Cl [compound 1021] | – | – | A (100) | A (100)
CCC(C)CNC(=O)c1c(I)cccc1C(=O)Nc1ccc(C(F)(F)C(F)(F)F)cc1C (stereo not shown) [compound 1026] | – | – | A (100) | A (100)
COCC(C)NC(=O)c1cccc(I)c1C(=O)Nc1ccc(C(F)(F)C(F)(F)F)cc1C (stereo not shown) [compound 1032] | – | – | A (100) | A (100)
CCN(CC)C(=O)c1cccc(I)c1C(=O)Nc1ccc(C(F)(F)C(F)(F)F)cc1C [compound 1036] | – | – | A (100) | A (100)
Cc1cc(C(F)(F)C(F)(F)F)ccc1NC(=O)c1cccc(I)c1C(=O)N(C)CC(C)C [compound 1043] | – | – | A (100) | A (100)
Cc1cc(C(F)(F)C(F)(F)F)ccc1NC(=O)c1cccc(I)c1C(=O)N1CCCC1 [compound 1047] | – | – | A (100) | A (100)
CCNC(=O)c1cccc(I)c1C(=O)Nc1ccc(OC(F)(F)C(F)F)cc1C [compound 1057] | – | – | A (100) | A (100)
CCCNC(=O)c1cccc(I)c1C(=O)Nc1ccc(C(F)(C(F)(F)F)C(F)(F)F)cc1C [compound 1076] | – | – | A (100) | A (100)
CC(C)NC(=O)c1ccccc1C(=O)Nc1ccc(S(=O)(=O)C(F)(F)F)cc1 [compound 1077] | – | – | A (100) | A (100)
Cc1cc(OC(F)(F)C(F)(F)c2ccccc2)ccc1NC(=O)c1ccccc1C(=O)NC(C)C [compound 1086] | – | – | A (100) | A (100)
Cc1cc(OC(F)(F)C(F)(F)c2ccccc2)ccc1NC(=O)c1cccc(I)c1C(=O)NC(C)C [compound 1088] | – | – | A (100) | A (100)
Cc1cc(OC(F)(F)C(F)(F)c2ccccc2)ccc1NC(=O)c1cccc([N+](=O)[O-])c1C(=O)NC(C)C [compound 1089] | – | – | A (100) | A (100)
CC(C)NC(=O)c1ccccc1C(=O)Nc1ccc2c(c1)OC(F)(F)O2 [compound 1099] | – | – | A (100) | A (100)
CC(C)(C)NC(=O)c1ccccc1C(=O)Nc1ccc2c(c1)OC(F)(F)O2 [compound 1103] | – | – | A (100) | A (100)
CC(C)NC(=O)c1ccccc1C(=O)Nc1ccc(SC(F)(F)Br)cc1 [compound 1106] | – | – | A (100) | A (100)
CC(C)NC(=O)c1ccccc1C(=O)Nc1ccc([S+]([O-])C(F)(F)Br)cc1 (stereo not shown) [compound 1107] | – | – | A (100) | A (100)
CC(C)NC(=O)c1c(C(=O)Nc2ccc(SC(F)(F)Br)cc2)cccc1[N+](=O)[O-] [compound 1108] | – | – | A (100) | A (100)
CC(C)NC(=O)c1c(C(=O)Nc2ccc([S+]([O-])C(F)(F)Br)cc2)cccc1[N+](=O)[O-] (stereo not shown) [compound 1109] | – | – | A (100) | A (100)
CC(C)NC(=O)c1c(Cl)cccc1C(=O)Nc1ccc([S+]([O-])C(F)(F)Br)cc1 (stereo not shown) [compound 1111] | – | – | A (100) | A (100)
